From the NIST ThermoML archive (doi:10.1021/je050010l)

What was measured:
[1] = refractive index (Na D-line) (dimensionless); conditions: 101.33 kPa, Liquid, Standard Abbe refractometry
[2] = 100.8 kPa, Liquid; for viscosity: Capillary tube (Ostwald / Ubbelohde) method
[3] = refractive index (Na D-line) (dimensionless); xn = mol fraction of the nth substance listed; conditions: 100.8 kPa, Liquid, Standard Abbe refractometry
[4] = xn = mol fraction of the nth substance listed; conditions: 100.8 kPa, Liquid; for viscosity: Capillary tube (Ostwald / Ubbelohde) method

CC(C)=O [acetone]
Conditions	mass density, 288.15 K [kg/m3]	mass density, 298.15 K [kg/m3]	mass density, 308.15 K [kg/m3]	refractive index, 288.15 K	refractive index, 298.15 K	refractive index, 308.15 K	viscosity, 288.15 K [mPa·s]	viscosity, 298.15 K [mPa·s]	viscosity, 308.15 K [mPa·s]
[1]	–	–	–	1.36152	1.35605	1.35057	–	–	–
[2]	796.87	785.47	773.91	–	–	–	0.334	0.302	0.274

CCO [ethanol] + CC(C)CC(C)(C)C
x1 = 1
Conditions	mass density, 288.15 K [kg/m3]	mass density, 298.15 K [kg/m3]	mass density, 308.15 K [kg/m3]	refractive index, 288.15 K	refractive index, 298.15 K	refractive index, 308.15 K	viscosity, 288.15 K [mPa·s]	viscosity, 298.15 K [mPa·s]	viscosity, 308.15 K [mPa·s]
[3]	–	–	–	1.36342	1.35924	1.35502	–	–	–
[4]	793.74	785.17	776.49	–	–	–	1.309	1.084	0.905

CCO [ethanol] + CC(C)=O
x2 = 0
Conditions	mass density, 288.15 K [kg/m3]	mass density, 298.15 K [kg/m3]	mass density, 308.15 K [kg/m3]	refractive index, 288.15 K	refractive index, 298.15 K	refractive index, 308.15 K	viscosity, 288.15 K [mPa·s]	viscosity, 298.15 K [mPa·s]	viscosity, 308.15 K [mPa·s]
[3]	–	–	–	1.36342	1.35924	1.35502	–	–	–
[4]	793.74	785.17	776.49	–	–	–	1.309	1.084	0.905

CCO [ethanol]
Conditions	mass density, 288.15 K [kg/m3]	mass density, 298.15 K [kg/m3]	mass density, 308.15 K [kg/m3]	refractive index, 288.15 K	refractive index, 298.15 K	refractive index, 308.15 K	viscosity, 288.15 K [mPa·s]	viscosity, 298.15 K [mPa·s]	viscosity, 308.15 K [mPa·s]
[1]	–	–	–	1.36342	1.35924	1.35502	–	–	–
[2]	793.74	785.17	776.49	–	–	–	1.309	1.084	0.905

CC(C)CC(C)(C)C [2,2,4-trimethylpentane]
Conditions	mass density, 288.15 K [kg/m3]	mass density, 298.15 K [kg/m3]	mass density, 308.15 K [kg/m3]	refractive index, 288.15 K	refractive index, 298.15 K	refractive index, 308.15 K	viscosity, 288.15 K [mPa·s]	viscosity, 298.15 K [mPa·s]	viscosity, 308.15 K [mPa·s]
[1]	–	–	–	1.39404	1.389	1.38395	–	–	–
[2]	695.95	687.74	679.41	–	–	–	0.537	0.48	0.432

CC(C)=O [acetone] + CC(C)CC(C)(C)C
x1 = 1
Conditions	mass density, 288.15 K [kg/m3]	mass density, 298.15 K [kg/m3]	mass density, 308.15 K [kg/m3]	refractive index, 288.15 K	refractive index, 298.15 K	refractive index, 308.15 K	viscosity, 288.15 K [mPa·s]	viscosity, 298.15 K [mPa·s]	viscosity, 308.15 K [mPa·s]
[3]	–	–	–	1.36152	1.35605	1.35057	–	–	–
[4]	796.87	785.47	773.91	–	–	–	0.334	0.302	0.274
